Measured values taken from patent US11998640B2, “Room temperature stable oral calcitonin formulation” (PARK THERAPEUTICS, INC., priority 2016, dated 2024).

What was measured:
[1] = Water content of rsCT and excipient powders by Karl Fischer Coulometric Titration Method 1c; format: physicochemical; settings: for Dried Water content: powder after drying in a lyophilizer; for Untreated Water Content: powder in its untreated state
Description: The stability of rsCT in the binary presence of the tablet core and subcoat excipients, as well as the effect of intrinsic and extrinsic moisture on the stability of those mixtures, was thoroughly examined. Each of the components including rsCT was evaluated in its untreated state and after drying in a lyophilizer (dried). The water content of each powder was determined by Karl Fischer Coulometric Titration Method 1c prior to preparation of the binary mixtures and is presented in Table 1, below.

[2] = more potent than human calcitonin; cited from earlier work
[3] = Binary mixture study: stability of rsCT with individual excipients stored at 40° C. (recovery and purity); format: physicochemical; settings: for rsCT stability in binary mixture: 40° C.
Description: Binary mixtures were prepared by combining about 18 mg of rsCT with about 300 mg of each of the excipients, individually. Each binary mixture was evaluated in the presence or absence of 10% (w/w) water. Control samples included rsCT only. The mixtures were stored at 40° C., were pulled in duplicate after 7 days and 32 days, and were evaluated for recovery (assay activity relative to that of untreated and dried rsCT) and purity.

Molecule	Dried Water content [1]	Untreated Water Content [1]	Potency relative to human calcitonin [2]	Average Purity (Area %) ([3]; 10% (v/w) Water Added, T = 7 days at 40° C.)	Average Purity (Area %) ([3]; 10% (v/w) Water Added, T = 32 days at 40° C.)	Average Purity (Area %) ([3]; Untreated Powders, T = 7 days at 40° C.)	Average Purity (Area %) ([3]; Untreated Powders, T = 32 days at 40° C.)	rsCT stability in binary mixture ([3]; in the presence of water and Citric Acid DC F20)	rsCT stability in binary mixture ([3]; in the presence of water and Kollicoat IR)	rsCT stability in binary mixture ([3]; in the presence of water and Prosolv HD90)
CC(C)C[C@H](NC(=O)[C@H](CCCCN)NC(=O)CNC(=O)[C@H](CC(C)C)NC(=O)[C@@H](NC(=O)[C@@H]1CSSC[C@H](N)C(=O)N[C@@H](CO)C(=O)N[C@@H](CC(N)=O)C(=O)N[C@@H](CC(C)C)C(=O)N[C@@H](CO)C(=O)N[C@@H]([C@@H](C)O)C(=O)N1)C(C)C)C(=O)N[C@@H](CO)C(=O)N[C@@H](CCC(N)=O)C(=O)N[C@@H](CCC(=O)O)C(=O)N[C@@H](CC(C)C)C(=O)N[C@@H](Cc1c[nH]cn1)C(=O)N[C@@H](CCCCN)C(=O)N[C@@H](CC(C)C)C(=O)N[C@@H](CCC(N)=O)C(=O)N[C@H](C(=O)N[C@@H](Cc1ccc(O)cc1)C(=O)N1CCC[C@H]1C(=O)N[C@@H](CCCNC(=N)N)C(=O)N[C@H](C(=O)N[C@@H](CC(N)=O)C(=O)N[C@H](C(=O)NCC(=O)N[C@@H](CO)C(=O)NCC(=O)N[C@H](C(=O)N1CCC[C@H]1C(N)=O)[C@@H](C)O)[C@@H](C)O)[C@@H](C)O)[C@@H](C)O [rsCT, salmon calcitonin]	0.90%	8.91%	30-50 times	98.2% Area %	95.1% Area %	98.9% Area %	96.0% Area %	rapidly degraded with concomitant loss of recovery and purity	loss of rsCT activity and loss in purity	rapid loss of rsCT activity and non-concomitant loss in purity
Magnesium Stearate	3.51%	5.00%								
